Measured values from patent US9181234B2, “Antibacterial compounds” (priority 2010, dated 2015).
Values after ≈ are worked out from the molar mass of the structure shown.

Assays:
[1] = test system: Streptococcus pyogenes (Isolate ID ATCC 51339); test: Antibacterial activity, MIC, S. pyogenes; type: cell-based; details: Streptococcus pyogenes, ATCC51339, Gram positive strain; broth microdilution or agar dilution
Method in brief: (§1)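 MICs determined by broth microdilution or agar dilution according to CLSI guidelines (M7-A7).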

[2] = test system: Enterococcus faecalis (Isolate ID ATCC 29212); test: Antibacterial activity, MIC, E. faecalis; type: cell-based; details: Enterococcus faecalis, ATCC29212; Gram positive strain; broth microdilution or agar dilution
Procedure: Bacterial Assay: Determination of Antibacterial Activity
Compounds of the invention were tested for antimicrobial activity by susceptibility testing in liquid or on solid media. MICs for compounds against each strain were determined by the broth microdilution or agar dilution method according to the guidelines of the Clinical Laboratories and Standards Institute, formerly the National Committee for Clinical Laboratory Standards (Clinical Laboratories and Standards Institute. Methods for Dilution Antimicrobial Susceptibility Tests for Bacteria That Grow Aerobically; Approved Standard—Seventh Edition. Document M7-A7. CLSI, Wayne, Pa., 2006; Clinical Laboratories and Standards Institute. The gram positive bacterial strains tested include S. aureus (Staphylococcus aureus (Isolate ID ATCC 29213)), E. faecalis (Enterococcus faecalis (Isolate ID ATCC 29212)) and S. pyogenes (Streptococcus pyogenes (Isolate ID ATCC 51339)). The gram negative bacterial strains tested include H. influenzae (Haemophilus influenzae (Isolate ID ATCC 49247))

[3] = test system: Staphylococcus aureus (Isolate ID ATCC 29213); test: Antibacterial activity, MIC, S. aureus; type: cell-based; details: Staphylococcus aureus, ATCC29213, Gram positive strain; broth microdilution or agar dilution
Method in brief: as §1

[4] = test system: Haemophilus influenzae (Isolate ID ATCC 49247); test: Antibacterial activity, MIC, H. influenzae; type: cell-based; details: Haemophilus influenzae, ATCC49247; Gram negative strain; broth microdilution or agar dilution
Method in brief: as §1

[5] = physchem; details: kinetic from dmso stock
Method in brief: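 DMSO doubling dilutions were diluted twenty-fold into 100 mM citrate (pH 4), PBS (pH 7.4) or carbonate-bicarbonate (pH 9). After 24 h equilibration at room temperature, absorbance was read at 620 nm. The reported value is the highest concentration without measurable precipitate.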

[6] = pH 7.4, aqueous buffer, Solubility (pH 7.4)
[7] = pH 7.4, aqueous buffer, Solubility Range

Structure (SMILES) | MIC [1] [µg/mL] | MIC [2] [µg/mL] | MIC [3] [µg/mL] | MIC [4] [µg/mL] | solubility at 24 h [5, 6] [µg/mL] | solubility at 24 h [5, 7] [µg/mL] | solubility at 24 h ([5]; pH 7.4, aqueous buffer, Max Solubility) [µg/mL] | solubility at 24 h ([5]; pH 7.4, aqueous buffer, Solubility Range (maximum solubility)) [µg/mL] | solubility at 24 h ([5]; pH 7.4, aqueous buffer, Solubility (pH 7.4), pH 7.4 (PBS), 24 hours at room temperature, turbidimetric) [µg/mL] | solubility at 24 h ([5]; pH 7.4, aqueous buffer, Solubility Range, pH 7.4) [µg/mL] | solubility at 24 h ([5]; pH 9, aqueous buffer, Max Solubility, maximum of pH 4, 7.4 and 9, shown at pH 9) [µg/mL] | solubility at 24 h ([5]; pH 9, aqueous buffer, Solubility Range (maximum solubility), maximum of pH 4, 7.4 and 9, shown at pH 9) [µg/mL]
CCNC(=O)Nc1nc2cc(-c3cnc(N4CCCCC4(C)C(=O)O)nc3)cc(-c3ccccn3)c2s1 (stereo not drawn) [Compound 2] | 0.25 to 1 (≈ 0.483 to 1.93 µM) | 0.25 to 1 (≈ 0.483 to 1.93 µM) | 0.25 to 1 (≈ 0.483 to 1.93 µM) | 1 to 16 (≈ 1.93 to 30.9 µM) | 6.25 (≈ 12.1 µM) | < 12.5 |  |  |  |  |  | 
CCNC(=O)Nc1nc2cc(-c3cnc(N4CCC(O)C(C)(C(=O)O)C4)nc3)cc(-c3ccccn3)c2s1 (stereo not drawn) [Compound 3] | ≤ 0.25 | 0.25 to 1 (≈ 0.469 to 1.87 µM) | 1 to 16 (≈ 1.87 to 30 µM) | 1 to 16 (≈ 1.87 to 30 µM) | 400 (≈ 750 µM) | 400 to 800 (≈ 750 to 1500 µM) |  |  |  |  |  | 
CCNC(=O)Nc1nc2cc(-c3cnc(N4CCC(C)(C(=O)O)CC4)c(C)c3)cc(-c3ccccn3)c2s1 [Compound 5] | ≤ 0.25 | ≤ 0.25 | ≤ 0.25 | > 16 | ≥ 800 | > 800 |  |  |  |  |  | 
CCNC(=O)Nc1nc2cc(-c3cnc(N4CCC(C)(C(=O)O)CC4)nc3)cc(-c3cc(C)ccn3)c2s1 [Compound 6, 1-[5-[2-(ethylcarbamoylamino)-7-(4-methyl-2-pyridyl)-1,3-benzothiazol-5-yl]pyrimidin-2-yl]-4-methyl-piperidine-4-carboxylic acid] | ≤ 0.25 | ≤ 0.25 | ≤ 0.25 | 1 to 16 (≈ 1.88 to 30.1 µM) | 400 (≈ 752 µM) | 400 to 800 (≈ 752 to 1500 µM) |  |  |  |  |  | 
CCNC(=O)Nc1nc2cc(-c3cnc(N4CCC(C)(C(=O)O)CC4)nc3)cc(-c3ccc(OC)c(OC)n3)c2s1 [Compound 7] | ≤ 0.25 | ≤ 0.25 | ≤ 0.25 | 0.25 to 1 (≈ 0.433 to 1.73 µM) | 400 (≈ 692 µM) | 400 to 800 (≈ 692 to 1380 µM) |  |  |  |  |  | 
CCNC(=O)Nc1nc2cc(-c3cnc(N4CCC(C)(C(=O)O)CC4)nc3)cc(-c3nccc(OC)n3)c2s1 [Compound 8] | ≤ 0.25 | ≤ 0.25 | ≤ 0.25 | 1 to 16 (≈ 1.82 to 29.2 µM) | 100 (≈ 182 µM) | 12.5 to 400 (≈ 22.8 to 729 µM) |  |  |  |  |  | 
CCNC(=O)Nc1nc2cc(-c3cnc(N4CCC(C)(C(=O)O)C(C)C4)nc3)cc(-c3ccccn3)c2s1 (stereo not drawn) [Compound 9] | ≤ 0.25 | ≤ 0.25 | ≤ 0.25 | 1 to 16 (≈ 1.88 to 30.1 µM) | ≥ 800 | > 800 |  |  |  |  |  | 
CCNC(=O)Nc1nc2cc(-c3cnc(N4CCC(C)(C(=O)O)CC4)nc3)cc(-c3cc(F)ccn3)c2s1 [Compound 10] | ≤ 0.25 | ≤ 0.25 | ≤ 0.25 | 1 to 16 (≈ 1.87 to 29.9 µM) | 100 (≈ 187 µM) | 12.5 to 400 (≈ 23.3 to 747 µM) |  |  |  |  |  | 
CCNC(=O)Nc1nc2cc(-c3cnc(N4CCC(C)(C(=O)O)CC4)nc3)cc(-c3cnccn3)c2s1 [Compound 11] | ≤ 0.25 | ≤ 0.25 | ≤ 0.25 | 1 to 16 (≈ 1.93 to 30.9 µM) | ≥ 800 | > 800 |  |  |  |  |  | 
CCNC(=O)Nc1nc2cc(-c3cnc(N4CCC(C)(C(=O)O)CC4)nc3)cc(-c3nccc(C)n3)c2s1 [Compound 12] | ≤ 0.25 | ≤ 0.25 | ≤ 0.25 | 1 to 16 (≈ 1.88 to 30 µM) | ≥ 800 | > 800 |  |  |  |  |  | 
CCNC(=O)Nc1nc2cc(-c3cnc(N4CCC(C)(C(=O)O)CC4)nc3)cc(-c3ncccc3C#N)c2s1 [Compound 13] | ≤ 0.25 | ≤ 0.25 | ≤ 0.25 | 1 to 16 (≈ 1.84 to 29.5 µM) | 100 (≈ 184 µM) | 12.5 to 400 (≈ 23 to 737 µM) |  |  |  |  |  | 
CCNC(=O)Nc1nc2cc(-c3cnc(N4CCC(C)(C(=O)O)CC4)nc3)cc(-c3ccc(C#N)cn3)c2s1 [Compound 14] | ≤ 0.25 | ≤ 0.25 | ≤ 0.25 | 0.25 to 1 (≈ 0.461 to 1.84 µM) | ≥ 800 | > 800 |  |  |  |  |  | 
CCNC(=O)Nc1nc2cc(-c3cnc(N4CCC(C)(C(=O)O)CC4)nc3)cc(-c3cc(OC)ncn3)c2s1 [Compound 15] | ≤ 0.25 | ≤ 0.25 | ≤ 0.25 | 0.25 to 1 (≈ 0.456 to 1.82 µM) | ≥ 800 | > 800 |  |  |  |  |  | 
CCNC(=O)Nc1nc2cc(-c3cnc(N4CCC(C)(C(=O)O)CC4)nc3)cc(-c3cc(C#N)ccn3)c2s1 [Compound 16] | ≤ 0.25 | ≤ 0.25 | ≤ 0.25 | 1 to 16 (≈ 1.84 to 29.5 µM) | 6.25 (≈ 11.5 µM) | < 12.5 |  |  |  |  |  | 
CCNC(=O)Nc1nc2cc(-c3cnc(N4CCC(C)(C(=O)O)CC4)nc3)cc(-c3cc(OC)ccn3)c2s1 [Compound 17] | ≤ 0.25 | ≤ 0.25 | ≤ 0.25 | 0.25 to 1 (≈ 0.457 to 1.83 µM) | ≥ 800 | > 800 |  |  |  |  |  | 
CCNC(=O)Nc1nc2cc(-c3cnc(N4CCC(C)(C(=O)O)CC4)nc3)cc(-c3ncccc3F)c2s1 [Compound 18] | ≤ 0.25 | ≤ 0.25 | ≤ 0.25 | 1 to 16 (≈ 1.87 to 29.9 µM) | ≥ 800 | > 800 | ≥ 800 | > 800 |  |  |  | 
CCNC(=O)Nc1nc2cc(-c3cnc(N4CCC(C)(C(=O)O)CC4)nc3)cc(-c3ncco3)c2s1 [Compound 19] | ≤ 0.25 | ≤ 0.25 | 0.25 to 1 (≈ 0.493 to 1.97 µM) | 1 to 16 (≈ 1.97 to 31.5 µM) | ≥ 800 | > 800 |  |  |  |  |  | 
CCNC(=O)Nc1nc2cc(-c3cnc(N4CCC(C)(C(=O)O)CC4)nc3)cc(CC)c2s1 [Compound 37, 1-{5-[7-Ethyl-2-(3-ethyl-ureido)-benzothiazol-5-yl]-pyrimidin-2-yl}-4-methyl-piperidine-4-carboxylic acid] | 1 to 16 (≈ 2.13 to 34.1 µM) | ≤ 0.25 | 0.25 to 1 (≈ 0.534 to 2.13 µM) | > 16 |  |  |  |  |  |  |  | 
CCNC(=O)Nc1nc2cc(-c3cnc(N4CCC(C)(C(=O)O)CC4)nc3)cc(C3CCCCC3)c2s1 [Compound 39, 1-{5-[7-Cyclohexyl-2-(3-ethyl-ureido)-benzothiazol-5-yl]-pyrimidin-2-yl}-4-methyl-piperidine-4-carboxylic acid] | > 16 | ≤ 0.25 | 1 to 16 (≈ 1.91 to 30.6 µM) | > 16 |  |  |  |  |  |  |  | 
CCNC(=O)Nc1nc2cc(-c3cnc(N4CCC(CC)(C(=O)O)CC4)nc3)cc(-c3cc(=O)[nH]cn3)c2s1 [Compound 111] | 1 to 16 (≈ 1.82 to 29.2 µM) | 1 to 16 (≈ 1.82 to 29.2 µM) | > 16 | > 16 |  |  |  |  |  |  |  | 
CCNC(=O)Nc1nc2cc(-c3cnc(N4CCC(CC)(C(=O)O)CC4)nc3)cc(-c3ccccn3)c2[nH]1 [Compound 229, 4-Ethyl-1-(5-(2-(3-ethylureido)-7-(pyridin-2-yl)-1H-benzoimidazol-5-yl)pyrimidin-2-yl)piperidine-4-carboxylic acid] | ≤ 0.25 |  | ≤ 0.25 | 1 to 16 (≈ 1.94 to 31.1 µM) |  |  |  |  | 100 (≈ 194 µM) | 12.5 to 400 (≈ 24.3 to 777 µM) | 200 (≈ 389 µM) | 12.5 to 400 (≈ 24.3 to 777 µM)
